Experimental data published in patent US8686016B2, “Schweinfurthins and uses thereof” (The United States of America, as represented by the …, priority 2009, dated 2014).
Entries after “also recorded” stand apart in the source; their conditions may differ.

How the values were obtained:
MPNST K16561 cells = test: XTT cell proliferation assay, K16561; format: cell-based, mouse
Protocol: Establishment of NPcis MPNST cell lines: Mice were euthanized by CO2 asphyxiation and tumors were dissected. The tumor volume was measured. The tumor was then cut in half, and ½ fixed in 4% PFA. The other half was rinsed, then cut into 24 pieces of approximately equal size. Each piece was diced with a razor blade and placed in 1 well of a 24 well plate, along with 625 μL of Triple Express (Gibco, Grand Island, N.Y., USA) and 5 μL of recombinant DNAse (Roche, Indianapolis, Ind., USA). Tumors were triturated, then incubated at 37° C. in a 5% CO2 incubator for 2-5 hours, with an additional trituration halfway through incubation time. At the end of the incubation, tumor pieces were triturated again, and suspended cells were transferred to 1.5 mL eppendorf tubes. […] Both plates were monitored for cell growth, grown up to 10 cm plates, and frozen down in 10% DMSO. […]
XTT Cell Proliferation Assay: Cells were seeded into 96-well plates at a density of 2,000 cells/well and allowed to reattach overnight. Cells were treated with SA, synthetic analogs, camptothecin (NCI Chemotherapeutics Repository, Md., USA), or DMSO control at the indicated concentrations continuously for 48 hours followed by assay in the 96-well plate for relative viable cell number using the dye […] (XTT) and a Wallac-Victor 2 plate reader (Perkin-Elmer, Waltham, Mass., USA). […]

A549 cells = test: XTT cell proliferation assay, A549; format: cell-based, human; conditions: 48 hours
Protocol: (§1) XTT Cell Proliferation Assay: Cells were seeded into 96-well plates at a density of 2,000 cells/well and allowed to reattach overnight. Cells were treated with SA, synthetic analogs, camptothecin (NCI Chemotherapeutics Repository, Md., USA), or DMSO control at the indicated concentrations continuously for 48 hours followed by assay in the 96-well plate for relative viable cell number using the dye […] (XTT) and a Wallac-Victor 2 plate reader (Perkin-Elmer, Waltham, Mass., USA). Absorbance was determined at 450 nm with 650 nm as a reference reading. Primary astrocytes were additionally assayed at a 96 hour time point.

SNB-75 = test: NCI60 cell line response to SA, SNB-75; format: cell-based, human; conditions: SNB-75, doubling time 62.8 hours
[1] = test system: KR158 cells stably transfected with GFP-actin; test: Cell morphology / actin confocal microscopy, KR158 GFP-actin; format: cell-based, mouse; conditions: 16-18 hrs treatment
Protocol: Doxorubicin studies: KR158 stably transfected with GFP-actin were treated with 25 and 50 μM doxorubicin for 18 hrs continuously.
Cell Morphology Assays and Confocal Microscopy: To assay cytoskeleton morphology, KR158 cells, mouse primary astrocytes, KR158 clones expressing the NF1-GRD constructs, K14553 cells, and A549 were seeded to cover slips and allowed to reattach overnight. Cells were treated for 18 hours with either the indicated concentrations of SA, or the vehicle control DMSO. The cover slips were fixed in 3.7% paraformaldehyde, permeablized in 0.1% Triton-X100, and stained with Alexa Fluor 488-phalloidin (Invitrogen, Carlsbad, Calif., USA) to detect actin and cells were mounted in Prolong Antifade containing DAPI (Invitrogen) to stain nuclei. The cells were imaged on a LSM510 confocal microscope (Carl Zeiss Inc., Jena, Germany). […] KR158 GFP-actin transfected cells were seeded to 8-well chamber slides, allowed to reattach, and then treated with indicated concentrations of SA. Actin structures were monitored continuously over a 16 hr period using confocal microscopy equipped with a growth chamber (37° C., humidified atmosphere and 5% CO2). To compare SA to Rho/Rock inhibitors, KR158 GFP-actin cells were treated with SA or with the Rho pathway inhibitors Rock inhibitor Y-27632 (Sigma, St. Louis, Mo., USA), and the Rho inhibitor C3 transferase (Cytoskeleton, Inc., Denver, Colo., USA, cat# CT04) for 16 hrs, and then examined by confocal microscopy.

SF-295 cells = test: XTT cell proliferation assay, SF-295; format: cell-based, human; conditions: 48 hours
Protocol: as §1

CC(C)=CCC/C(C)=C/Cc1c(O)cc(/C=C/c2cc(O)c3c(c2)C[C@@H]2C(C)(C)[C@H](O)[C@H](O)C[C@@]2(C)O3)cc1O [SA, Schweinfurthin A]
inhibition of proliferation (percent viability versus control) (MPNST K16561 cells): dose dependent inhibition of proliferation; also recorded: sensitive | inhibition of proliferation (percent viability versus control) (A549 cells): does not inhibit; also recorded: no apparent effect | logGI50 (SNB-75): −7.82 | F-actin staining / stress fibers [1]: dramatic loss of F-actin staining | inhibition of proliferation (percent viability versus control) (SF-295 cells): sensitive; also recorded: inhibited both the KR158 and SF-295 cell lines in a dose dependent manner
